How the values were obtained:
[1] = Metabolic stability in human liver microsomes assessed as compound remaining at 1 uM incubated for 60 mins; format: ADME, Microsome; conditions: read-out: Stabilty
[2] = Metabolic stability in rat liver microsomes assessed as compound remaining at 1 uM incubated for 60 mins; format: ADME, Microsome; conditions: read-out: Stabilty
[3] = AUC in mouse at 1 mg/kg, po by LC/MS analysis; format: ADME, organism-based; set-up: dose 1 mg/kg; conditions: in vivo
[4] = Volume of distribution at steady state in Sprague-Dawley rat at 0.3 mg/kg, iv measured up to 24 hrs by LC-MS/MS analysis; format: ADME, organism-based; conditions: in vivo, read-out: Vdss
[5] = Mean residence time in Sprague-Dawley rat at 0.3 mg/kg, iv measured up to 24 hrs by LC-MS/MS analysis; format: ADME, organism-based; conditions: in vivo
[6] = Solubility of the compound measured after 4 hrs by LC analysis; format: physicochemical
[7] = Oral bioavailability in mouse at 1 mg/kg by LC/MS analysis; format: ADME, organism-based; conditions: in vivo
[8] = Total clearance in Sprague-Dawley rat at 0.3 mg/kg, iv measured up to 24 hrs by LC-MS/MS analysis; format: ADME, organism-based; conditions: in vivo
[9] = Apparent permeability across apical to basolateral side in human Caco2 cells incubated for 2 hrs by LC/MS/MS analysis; format: ADME, cell-based; conditions: Caco-2, read-out: permeability
[10] = Half life in mouse at 1 mg/kg, po by LC/MS analysis; format: ADME, organism-based; conditions: in vivo

Compound | remaining at 1 h, 1 µM [1] | remaining at 1 h, 1 µM [2] | other results
COc1cn2ncc(-c3ccnc(OC4CC4)c3)c2nc1-c1cnn(C)c1 | 47% | 32% | –
COc1cn2ncc(-c3ccnc(OC(C)(C)C)c3)c2nc1-c1cnn(C)c1 | 35% | 61% | –
COc1cc(-c2cnn3cc(OC)c(C(C)C)nc23)ccn1 | 40% | 14% | –
COc1cc(-c2cnn3cc(OC)c(-c4cnn(C)c4)nc23)ccn1 | 43% | 56% | –
COc1cc(-c2cnn3cc(OC)c([C@@H]4COC(C)(C)C4)nc23)ccn1 | 13% | 30% | –
COc1cnc2c(-c3ccnc(OC)c3)cnn2c1 | 2% | 10% | –
Cn1cc(-c2nc3c(-c4ccnc(OC5CC5)c4)cnn3cc2OCCC(C)(C)O)cn1 | 74% | 84% | AUC [3]: 2.3 µM·h; Vd [4]: 2.7 L/kg; MRT [5]: 5.5 h; solubility [6]: Soluble; bioavailability [7]: 48%; clearance [8]: 8.17 mL/min/kg; Papp A→B at 2 h [9]: 1.4 ×10⁻⁶ cm/s; half-life [10]: 4.6 h
CNc1nc2c(-c3ccnc(OC)c3)cnn2cc1OC | 63% | 74% | –
COc1cn2ncc(-c3ccnc(OC(C)C)c3)c2nc1-c1cnn(C)c1 | 32% | 50% | –
COc1cc(-c2cnn3cc(OC)c(-c4cc(C)no4)nc23)ccn1 | 31% | 62% | –
Cn1cc(-c2nc3c(-c4ccnc(OC5CC5)c4)cnn3cc2OCCCC(C)(C)O)cn1 | 54% | 64% | –
COc1cc(-c2cnn3cc(OC)c(C(C)(C)O)nc23)ccn1 | 66% | 92% | –
COc1cc(-c2cnn3cc(OC)c(N(C)C)nc23)ccn1 | 16% | 3% | –
COc1cc(-c2cnn3cc(OC)c(C4CCOC4)nc23)ccn1 (centres undefined) | 29% | 34% | –
COc1cc(-c2cnn3cc(OC)c(C4CCCC4)nc23)ccn1 | 32% | 7% | –
Cn1cc(-c2nc3c(-c4ccnc(OC5CC5)c4)cnn3cc2OCC(C)(C)O)cn1 | 53% | 81% | –
COc1cc(-c2cnn3cc(OC)c([C@H]4COC(C)(C)C4)nc23)ccn1 | 21% | 30% | –
COc1cc(-c2cnn3cc(OC)c(C)nc23)ccn1 | 44% | 13% | –
